According to PubChem BioAssay AID1963847 (Molecular Pharmacology Branch, DTP, NCI, 2024):

Tested on: 415267-285-R-J2-PDC complex spheroid viability
Experiment: Anticancer human tumor 415267-285-R-J2-PDC patient-derived breast carcinoma cell line growth inhibition [POLQ]
Settings: for IC50: curve of first compound; for viability, T/C: stronger effect = lower value
In short: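 PDC + HUVEC + MSC complex spheroids; POLQ inhibitors ± partner drugs; top conc. at/near clinical Cmax, else 10 microM (SN-38 1 microM), half-log dilutions; 37 degrees C, 5% CO2.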

[1] = second compound 0.0316 µM, first compound 0.0316 µM
[2] = second compound 0.0316 µM, first compound 0.1 µM
[3] = second compound 0.0316 µM, first compound 0.316 µM
[4] = second compound 0.0316 µM, first compound 1 µM
[5] = second compound 0.1 µM, first compound 0.0316 µM
[6] = second compound 0.1 µM, first compound 0.1 µM
[7] = second compound 0.1 µM, first compound 0.316 µM
[8] = second compound 0.1 µM, first compound 1 µM
[9] = second compound 0.316 µM, first compound 0.0316 µM
[10] = second compound 0.316 µM, first compound 0.1 µM
[11] = second compound 0.316 µM, first compound 0.316 µM
[12] = second compound 0.316 µM, first compound 1 µM
[13] = second compound 1 µM, first compound 0.0316 µM
[14] = second compound 1 µM, first compound 0.1 µM
[15] = second compound 1 µM, first compound 0.316 µM
[16] = second compound 1 µM, first compound 1 µM
[17] = second compound 3.16 µM, first compound 0.0316 µM
[18] = second compound 3.16 µM, first compound 0.1 µM
[19] = second compound 3.16 µM, first compound 0.316 µM
[20] = second compound 3.16 µM, first compound 1 µM
[21] = second compound 10 µM, first compound 0.0316 µM
[22] = second compound 10 µM, first compound 0.1 µM
[23] = second compound 10 µM, first compound 0.316 µM
[24] = second compound 10 µM, first compound 1 µM
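Also: spheroids exposed to compounds for one week before readout.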
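For viability, T/C in this document: luminescence used as stand-in measure of viable cells; 100% = DMSO vehicle control viability.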

SMILES: CCc1c2c(nc3ccc(O)cc13)-c1cc3c(c(=O)n1C2)COC(=O)[C@]3(O)CC + Cc1cccc(N(C)C(=O)C2C(O)CCN2c2nc(C)cc(C(F)(F)F)c2C#N)c1
- IC50 (second compound 0.0316 µM): < 0.00316 µM
- IC50 (second compound 0.1 µM): < 0.00316 µM
- IC50 (second compound 0.316 µM): < 0.00316 µM
- IC50 (second compound 1 µM): < 0.00316 µM
- IC50 (second compound 3.16 µM): < 0.00316 µM
- IC50 (second compound 10 µM): < 0.00316 µM
- viability, T/C (second compound 0.0316 µM, first compound 0.00316 µM): 27.1%
- viability, T/C (second compound 0.0316 µM, first compound 0.01 µM): 11.3%
- viability, T/C [1]: 5.73%
- viability, T/C [2]: 3.97%
- viability, T/C [3]: 3.18%
- viability, T/C [4]: 1.44%
- viability, T/C (second compound 0.1 µM, first compound 0.00316 µM): 26.4%
- viability, T/C (second compound 0.1 µM, first compound 0.01 µM): 10%
- viability, T/C [5]: 5.47%
- viability, T/C [6]: 4.21%
- viability, T/C [7]: 3.59%
- viability, T/C [8]: 1.35%
- viability, T/C (second compound 0.316 µM, first compound 0.00316 µM): 32.5%
- viability, T/C (second compound 0.316 µM, first compound 0.01 µM): 11.6%
- viability, T/C [9]: 5.27%
- viability, T/C [10]: 3.49%
- viability, T/C [11]: 3.51%
- viability, T/C [12]: 1.32%
- viability, T/C (second compound 1 µM, first compound 0.00316 µM): 34%
- viability, T/C (second compound 1 µM, first compound 0.01 µM): 9.41%
- viability, T/C [13]: 6.43%
- viability, T/C [14]: 4.75%
- viability, T/C [15]: 3.42%
- viability, T/C [16]: 0.75%
- viability, T/C (second compound 3.16 µM, first compound 0.00316 µM): 34.7%
- viability, T/C (second compound 3.16 µM, first compound 0.01 µM): 8.16%
- viability, T/C [17]: 6.7%
- viability, T/C [18]: 4.46%
- viability, T/C [19]: 4.26%
- viability, T/C [20]: 1.28%
- viability, T/C (second compound 10 µM, first compound 0.00316 µM): 29.4%
- viability, T/C (second compound 10 µM, first compound 0.01 µM): 10.3%
- viability, T/C [21]: 6.91%
- viability, T/C [22]: 3.72%
- viability, T/C [23]: 3.54%
- viability, T/C [24]: 1.1%

SMILES: CNCc1ccc(-c2[nH]c3cc(F)cc4c3c2CCNC4=O)cc1 + Cc1cccc(N(C)C(=O)C2C(O)CCN2c2nc(C)cc(C(F)(F)F)c2C#N)c1
- IC50 (second compound 0.0316 µM): > 10 µM
- IC50 (second compound 0.1 µM): > 10 µM
- IC50 (second compound 0.316 µM): > 10 µM
- IC50 (second compound 1 µM): > 10 µM
- IC50 (second compound 3.16 µM): > 10 µM
- IC50 (second compound 10 µM): > 10 µM
- viability, T/C [1]: 94.8%
- viability, T/C [2]: 97.2%
- viability, T/C [3]: 106%
- viability, T/C [4]: 116%
- viability, T/C (second compound 0.0316 µM, first compound 3.16 µM): 94.5%
- viability, T/C (second compound 0.0316 µM, first compound 10 µM): 110%
- viability, T/C [5]: 99.8%
- viability, T/C [6]: 86.7%
- viability, T/C [7]: 102%
- viability, T/C [8]: 96.3%
- viability, T/C (second compound 0.1 µM, first compound 3.16 µM): 105%
- viability, T/C (second compound 0.1 µM, first compound 10 µM): 105%
- viability, T/C [9]: 97.5%
- viability, T/C [10]: 103%
- viability, T/C [11]: 101%
- viability, T/C [12]: 101%
- viability, T/C (second compound 0.316 µM, first compound 3.16 µM): 102%
- viability, T/C (second compound 0.316 µM, first compound 10 µM): 99.6%
- viability, T/C [13]: 97.8%
- viability, T/C [14]: 96.3%
- viability, T/C [15]: 93.7%
- viability, T/C [16]: 100%
- viability, T/C (second compound 1 µM, first compound 3.16 µM): 104%
- viability, T/C (second compound 1 µM, first compound 10 µM): 84.3%
- viability, T/C [17]: 94%
- viability, T/C [18]: 100%
- viability, T/C [19]: 100%
- viability, T/C [20]: 98%
- viability, T/C (second compound 3.16 µM, first compound 3.16 µM): 97.8%
- viability, T/C (second compound 3.16 µM, first compound 10 µM): 94.6%
- viability, T/C [21]: 98.4%
- viability, T/C [22]: 90.2%
- viability, T/C [23]: 96.3%
- viability, T/C [24]: 95.1%
- viability, T/C (second compound 10 µM, first compound 3.16 µM): 96.9%
- viability, T/C (second compound 10 µM, first compound 10 µM): 88.9%
